Results: patent US20110262561A1, “Protoilludance Norsesquiterpenoid Esters and Uses Thereof” (NATIONAL RESEARCH INSTITUTE OF CHINESE MEDICINE, priority 2010, published 2011)
Like-named read-outs stand apart in the source and are kept apart here.

How the values were obtained:
H460 = assay: Alamar blue cytotoxicity assay on H460 cancer cells; format: cell-based, human; conditions: for IC50: Homo sapiens, NCI-H460, alamar blue, 48 hours treatment
Protocol: (§1) The endothelial cells (human endothelial-like cells, Eahy926) and 4 cancer cell lines (MCF-7, H460, HT-29, and CEM) were derived from the American Type Culture Collection (ATCC) and were maintained in DMEM or RPMI medium (Life Technologies) supplemented with 2 mM L-glutamine and 10% heat-inactivated fetal bovine serum (FBS) (Life Technologies) under standard culture conditions. The cell viability and cell number were determined by the Trypan Blue dye-exclusion method.
(§2) The alamar blue (AB) assay (dye purchased from Biosource International, Nivelles, Belgium) was used to estimate cell viability in accordance with procedures previously described by Fatokun et al (Bone (2006) 39, 542-551). Briefly, cells were treated with various concentration of each of the test compounds (e.g., compounds of example 1.1) at 37° C. for 48 hours, and the medium in each well was then aspirated at the end of the treatment, 100 μL of fresh medium containing 10% v/v AB was then added to the control and the treated wells, respectively. Plates were then incubated at 37° C. for 6 hour prior to measuring the absorbance at 570 nm and at 600 nm wavelengths using a spectrophotometric plate reader (DYNEX Technologies, USA). Experimental data were normalized to control values. CH-205-A, K, L, O, and -P were effective on MCF-7 cells; CH-205-A, H, K, L, O, and -P were effective on H460 cells; CH-205-A and -P were effective on HT-29 cells and CH-205-A, H, N, and -O were effective on CEM cells.

CEM = assay: Alamar blue cytotoxicity assay on CEM cancer cells; format: cell-based; conditions: for IC50: Homo sapiens, CCRF-CEM, alamar blue, 48 hours treatment
Protocol: as §1, §2

HT-29 = assay: Alamar blue cytotoxicity assay on HT-29 cancer cells; format: cell-based; conditions: for IC50: Homo sapiens, HT-29, alamar blue, 48 hours treatment
Protocol: as §1, §2

endothelial cells (ECs) = assay: In vitro antiangiogenesis on ECs (inhibition of endothelial cell growth); format: cell-based; conditions: Homo sapiens, read-out: In vitro antiangiogenesis IC50
Protocol: as §1
(§3) Anti-angiogenic effects of CH-205 compounds were estimated by their inhibition on the growth of endothelial cells. The toxicity of CH-205 compounds to endothelial cells was estimated using MTT (3-(4,5-dimethy;thiazol-2-yl)-2,5-diphenyltetrazolium bromide, a tetrazole) assay. MTT assay is a standard colorimetric assay (an assay which measures changes in color) for measuring the activity of enzymes that reduce yellow MTT to formazan, giving a purple color. It is also used to determine cytotoxity of potential medicinal agents and other toxic materials, since those agents would result in cell toxicity and therefore metabolic dysfunction and therefore decreased performance in the assay. The cytotoxity concentrations of the CH-205 compounds measured in MTT test are all over 20 μM (Table 2), however, their effects on angiogenesis inhibition are in nM range, indicating the safety of these compounds (Table 3).

[1] = tested on: endothelial cells (human endothelial-like cells, Eahy926); assay: MTT cell viability of endothelial cells (ECs); format: cell-based
Protocol: as §1, §3

[2] = MTT cell viability of endothelial cells (ECs); format: cell-based, human; conditions: human, Eahy926 endothelial-like cells, column head prints none, read-out: Cell viability IC50 (cytotoxicity concentration on ECs)
Protocol: as §1, §3

MCF-7 = assay: Alamar blue cytotoxicity assay on MCF-7 cancer cells; format: cell-based; conditions: for IC50: Homo sapiens, MCF7, alamar blue, 48 hours treatment
Protocol: as §1, §2

[3] = tested on: H460 human lung cancer tumor xenograft
Protocol: The established, transplantable, 5×10^6/200 μL H460 tumor cells were prepared in RPMI medium. The 200 μL of cell suspension was injected subcutaneously into right flank area of each mouse. The mice were randomized into vehicle control and drug treatment groups of four-six animals each when xenografts were palpable with a tumor size of 40 mm^3. Adminitration of the lead compounds or vehicle began on day 15 when the median tumor size was ranged from 75 to 80 mm^3. Tumor-bearing animals were randomized (five per group) prior to treatment. The candidate test drugs were intraperitoneal (IP) administered into with optimal dosage once every other day (48 hr apart) for 7 or 10 times. […] Solvent vehicle and cisplatin (5 mg/kg) were used to administrate, respectively, as io negative and positive controls. Two days after last administration of tested compounds, the animals were sacrificed. The tumor dimensions were measured every other day using a linear caliper and tumor volume is calculated using the equation V (mm^3)=a×b^2/2, where a is the largest diameter and b is the smallest diameter. Body weights are also recorded once weekly. Tumor is growth inhibition ratio (TGI) is calculated using the equation TGI=(1−(the mean treated tumor mass/mean control tumor mass))*100%.

Structure (SMILES)	effective on H460 cells (H460)	IC50 (H460) [µM]	effective on CEM cells (CEM)	IC50 (CEM) [µM]	effective on HT-29 cells (HT-29)	IC50 (HT-29) [µM]	IC50 (endothelial cells (ECs)) [µM]	Cell viability (% of control) 1 μM [1]	Cell viability (% of control) 10 μM [1]	Cell viability (% of control) 50 μM [1]	Cell viability (% of control) 100 μM [1]	Cell viability (% of control) 250 μM [1]	Cell viability (% of control) 500 μM [1]	IC50 [2] [µM]	effective on MCF-7 cells (MCF-7)	IC50 (MCF-7) [µM]	IC50 (endothelial cells (ECs); ECs) [µM]	Tumor growth inhibition ratio (TGI) ([3]; CH-205-K study, positive control 5 mg/kg (fifth value of the sentence)) [%]	Tumor growth inhibition ratio (TGI) ([3]; CH-205-O study, positive control 5 mg/kg) [%]
COc1cc(O)c(C(=O)O[C@@H]2C[C@@]3(C)C2=C(C=O)C=C2CC(C)(C)C[C@@H]23)c(C)c1Cl [CH-205-A]	effective	5.5	effective	5.8	effective	4.6	0.0403	101.4 % of control	87.9 % of control	17.7 % of control	8.4 % of control	7.1 % of control	7.9 % of control	24.1	effective	4.8			
COc1cc(O)c(C(=O)O[C@@H]2C[C@]3(C)C4[C@@H](O)C(C)(C)C[C@@]4(O)C=C(C=O)[C@]23O)c(C)c1Cl (stereo partly drawn) [CH-205-E, (2R,2a6,4aR,7R,7bR)-3-formyl-2,2a,4a,5,6,7,7a,7b-octahydro-2a,4a,7-trihydroxy-6,6,7b-trimethyl-1H-cyclobuta[e]inden-2-yl 3-chloro-6-hyd roxy-4-methoxy-2-methylbenzoate]		> 100		49.6		85.6		93.5 % of control	98.6 % of control	80.8 % of control	63.7 % of control	32.1 % of control	7.4 % of control	220		> 100	0.023		
Cc1cc(O)cc(O)c1C(=O)O[C@@H]1C[C@]2(C)C3CC(C)(C)CC3C=C(CO)[C@]12O (stereo partly drawn) [CH-205-L, (2R,2aS,7bR)-2,2a,4a,5,6,7,7a,7b-octahydro-2a-hydroxy-3-(hydroxymethyl)-6,6,7b-trimethyl-1H-cyclobuta[e]inden-2-yl 2,4-dihydroxy-6-methylbenzoate]	effective	5.1		41.2		58.4		93.2 % of control	118.8 % of control	6.5 % of control	6.4 % of control	6.5 % of control	9.8 % of control	21.1	effective	8.3	0.0011		
Cc1c(Cl)c(O)cc(O)c1C(=O)O[C@@H]1C[C@]2(C)[C@H]3CC(C)(C)C[C@@]3(O)C=C(C=O)[C@]12O [CH-205-N, (2R,2aS,4aR,7aR,7bR)-3-formyl-2,2a,4a,5,6,7,7a,7b-octahydro-2a,4a-dihydroxy-6,6,7b-trimethyl-1H-cyclobuta[e]inden-2-yl 3-chloro-4,6-dihydroxy-2-methylbenzoate]		> 100	effective	5.5		32.1		96.5 % of control	94.1 % of control	96.5 % of control	85.1 % of control	55.2 % of control	7.6 % of control	270		> 100	0.0035		
N.N.[Cl][Pt][Cl] [cisplatin, reference compound]																		77.78	82
